# Measured values as given in ChEMBL document CHEMBL5108005, “Rational design of a trypanocidal peptide derived from Dinoponera quadriceps venom” (Eur J Med Chem, 2022).
# The source made the active and inactive calls. The calls are words filed in the database; no cut-off is given here.
# Columns and labels:
# Trypanosoma cruzi [1] = assay: Antitrypanosomal activity against Trypanosoma cruzi Y epimastigotes assessed as parasite growth inhibition measured after 72 hrs by hemocytometer chamber based analysis; format: functional, organism-based
# Trypanosoma cruzi [2] = assay: Antitrypanosomal activity against Trypanosoma cruzi Y epimastigotes assessed as parasite growth inhibition measured after 48 hrs by hemocytometer chamber based analysis; format: functional, organism-based
# [3] = Cytotoxicity against monkey LLC-MK2 cells assessed as reduction in cell viability incubated for 24 hrs by MTT assay; format: toxicity, cell-based; details: Macaca mulatta (monkey)
# Trypanosoma cruzi [4] = assay: Antitrypanosomal activity against Trypanosoma cruzi Y trypomastigotes infected in monkey LLC-MK2 cells assessed as reduction in cell death inducing capability incubated for 24 hrs by Neubauer chamber based analysis; format: functional, organism-based; details: LLC-MK2, 24 h
# [5] = Selectivity index, ratio of EC50 for Cytotoxicity against monkey LLC-MK2 cells to EC50 for antitrypanosomal activity against Trypanosoma cruzi Y trypomastigotes infected in monkey LLC-MK2 cells; format: toxicity, cell-based; details: read-out: Ratio EC50
# Trypanosoma cruzi [6] = assay: Antitrypanosomal activity against Trypanosoma cruzi Y epimastigotes assessed as parasite growth inhibition measured after 24 hrs by hemocytometer chamber based analysis; format: functional, organism-based
# Trypanosoma cruzi [7] = assay: Antitrypanosomal activity against Trypanosoma cruzi Y trypomastigotes infected in monkey LLC-MK2 cells assessed as reduction in cell death inducing capability incubated for 24 hrs by hemocytometer chamber based analysis; format: functional, organism-based; details: LLC-MK2, 24 h
# Trypanosoma cruzi [8] = assay: Induction of cell death in Trypanosoma cruzi Y epimastigotes assessed as live cells at 7.2 uM incubated for 24 hrs by Annexin V/7-AAD staining based flow cytometric analysis (reference value: 98.6 %); format: functional
# Trypanosoma cruzi [9] = assay: (§1) Antitrypanosomal activity against Trypanosoma cruzi Y amastigotes infected in monkey LLC-MK2 cells assessed as reduction in reduction in amastigotes per 100 cells measured after 24 hrs by Giemsa staining based analysis; format: functional, organism-based; details: LLC-MK2, 24 h
# Trypanosoma cruzi [10] = assay: Induction of cell death in Trypanosoma cruzi Y epimastigotes assessed as late apoptotic cells at 7.2 uM incubated for 24 hrs by Annexin V/7-AAD staining based flow cytometric analysis (reference value: 0.12 %); format: functional
# Trypanosoma cruzi [11] = assay: Induction of oxidative stress in Trypanosoma cruzi Y epimastigotes assessed as increase in ROS formation at 7.2 uM incubated for 24 hrs by DCFH-DA staining based analysis relative to control; format: functional
# Trypanosoma cruzi [12] = assay: Induction of membrane damage in Trypanosoma cruzi Y epimastigotes at EC50 measured after 12 hrs by SEM analysis; format: organism-based; details: Cell membrane
# Trypanosoma cruzi [13] = assay: Induction of cell death in Trypanosoma cruzi Y epimastigotes assessed as dead cells at 7.2 uM incubated for 24 hrs by Annexin V/7-AAD staining based flow cytometric analysis (reference value: 1.13 %); format: functional
# [14] = as §1, with “Selectivity index, ratio of EC50 for Cytotoxicity against monkey LLC-MK2 cells to EC50 for antitrypanosomal” for “Antitrypanosomal”; format: toxicity, cell-based; details: read-out: Ratio EC50
# Trypanosoma cruzi [15] = assay: Induction of cell death in Trypanosoma cruzi Y epimastigotes assessed as early apoptotic cells at 7.2 uM incubated for 24 hrs by Annexin V/7-AAD staining based flow cytometric analysis (reference value: 0.11 %); format: functional
# [16] = Cytotoxicity against monkey LLC-MK2 cells assessed as reduction in cell viability incubated for 48 hrs by MTT assay; format: toxicity, cell-based; details: Macaca mulatta (monkey)
# [17] = as §1, with “Selectivity index, ratio of EC50 for Cytotoxicity against monkey LLC-MK2 cells to EC50 for antitrypanosomal” for “Antitrypanosomal”, “48” for “24”; format: toxicity, cell-based; details: read-out: Ratio EC50
# Trypanosoma cruzi [18] = assay: Induction of mitochondrial membrane potential loss in Trypanosoma cruzi Y epimastigotes at 7.2 uM incubated for 24 hrs by Rhodamine 123 staining based flow cytometric analysis relative to control; format: functional
# Trypanosoma cruzi [19] = assay: Antitrypanosomal activity against Trypanosoma cruzi Y amastigotes infected in monkey LLC-MK2 cells assessed as reduction in reduction in amastigotes per 100 cells measured after 48 hrs by Giemsa staining based analysis; format: functional, organism-based; details: LLC-MK2, 48 h
# Trypanosoma cruzi [20] = assay: Induction of oxidative stress in Trypanosoma cruzi Y epimastigotes assessed as increase in ROS formation at 13.5 uM incubated for 24 hrs by DCFH-DA staining based analysis relative to control; format: functional
# Trypanosoma cruzi [21] = assay: Induction of cell death in Trypanosoma cruzi Y epimastigotes assessed as live cells at 13.5 uM incubated for 24 hrs by Annexin V/7-AAD staining based flow cytometric analysis (reference value: 98.6 %); format: functional
# Trypanosoma cruzi [22] = assay: Induction of cell death in Trypanosoma cruzi Y epimastigotes assessed as early apoptotic cells at 13.5 uM incubated for 24 hrs by Annexin V/7-AAD staining based flow cytometric analysis (reference value: 0.11 %); format: functional
# Trypanosoma cruzi [23] = assay: Induction of cell death in Trypanosoma cruzi Y epimastigotes assessed as late apoptotic cells at 13.5 uM incubated for 24 hrs by Annexin V/7-AAD staining based flow cytometric analysis (reference value: 0.12 %); format: functional
# Trypanosoma cruzi [24] = assay: Induction of cell death in Trypanosoma cruzi Y epimastigotes assessed as dead cells at 13.5 uM incubated for 24 hrs by Annexin V/7-AAD staining based flow cytometric analysis (reference value: 1.13 %); format: functional
# Trypanosoma cruzi [25] = assay: Induction of mitochondrial membrane potential loss in Trypanosoma cruzi Y epimastigotes at 125 uM incubated for 24 hrs by Rhodamine 123 staining based flow cytometric analysis relative to control; format: functional
# Trypanosoma cruzi [26] = assay: Induction of cell death in Trypanosoma cruzi Y epimastigotes assessed as late apoptotic cells at 125 uM incubated for 24 hrs by Annexin V/7-AAD staining based flow cytometric analysis (reference value: 0.12 %); format: functional
# Trypanosoma cruzi [27] = assay: Induction of cell death in Trypanosoma cruzi Y epimastigotes assessed as early apoptotic cells at 125 uM incubated for 24 hrs by Annexin V/7-AAD staining based flow cytometric analysis (reference value: 0.11 %); format: functional
# Trypanosoma cruzi [28] = assay: Induction of cell death in Trypanosoma cruzi Y epimastigotes assessed as dead cells at 125 uM incubated for 24 hrs by Annexin V/7-AAD staining based flow cytometric analysis (reference value: 1.13 %); format: functional
# Trypanosoma cruzi [29] = assay: Induction of cell death in Trypanosoma cruzi Y epimastigotes assessed as live cells at 125 uM incubated for 24 hrs by Annexin V/7-AAD staining based flow cytometric analysis (reference value: 98.6 %); format: functional
Compound,EC50 (Trypanosoma cruzi [1]),EC50 (Trypanosoma cruzi [2]),EC50 at 24 h [3],selectivity ratio [5],EC50 (Trypanosoma cruzi [6]),EC50 (Trypanosoma cruzi [7]),also measured
H-FWGTLAKWALKAIPAAMGMKQNK-OH,2.4 µM,3.6 µM,25.7 µM,80.3,4.7 µM,–,EC50 (Trypanosoma cruzi [4]): 0.32 µM
H-FWRTLAKWALKAIPA-OH,–,–,13 µM,18.8,–,0.69 µM,–
H-FWGTLAKWAKKAIPA-OH,–,–,97 µM,–,–,1.09 µM,–
H-AIPAAMGMKQNK-OH,8.7 µM,9.7 µM,43.1 µM,72.9,7.2 µM,0.59 µM,Activity (Trypanosoma cruzi [8]): 85.36%; EC50 (Trypanosoma cruzi [9]): 1.32 µM; Activity (Trypanosoma cruzi [10]): 1.09%; Activity (Trypanosoma cruzi [11]): 40%; Activity (Trypanosoma cruzi [12]): Active; Activity (Trypanosoma cruzi [13]): 12.42%; selectivity ratio at 24 h [14]: 32.6; Activity (Trypanosoma cruzi [15]): 1.13%; EC50 at 48 h [16]: 35.8 µM; selectivity ratio at 48 h [17]: 96.7; Activity (Trypanosoma cruzi [18]): 65%; EC50 (Trypanosoma cruzi [19]): 0.37 µM
H-FWGTLAKWALRAIPA-OH,–,–,38.5 µM,24.7,–,1.54 µM,–
H-FWKTLAKWALKAIPA-OH,19.3 µM,16.8 µM,73.4 µM,85.3,13.5 µM,0.86 µM,Activity (Trypanosoma cruzi [20]): 58%; Activity (Trypanosoma cruzi [21]): 74.1%; EC50 (Trypanosoma cruzi [9]): 0.91 µM; Activity (Trypanosoma cruzi [22]): 0.01%; Activity (Trypanosoma cruzi [23]): 1.04%; Activity (Trypanosoma cruzi [12]): Active; selectivity ratio at 24 h [14]: 80.7; Activity (Trypanosoma cruzi [24]): 25.06%; EC50 at 48 h [16]: 43.9 µM; selectivity ratio at 48 h [17]: 157; EC50 (Trypanosoma cruzi [19]): 0.28 µM
O=C(Cn1ccnc1[N+](=O)[O-])NCc1ccccc1 [BENZNIDAZOLE],22.1 µM,37.4 µM,503 µM,3.11,115 µM,161 µM,Activity (Trypanosoma cruzi [25]): 70%; Activity (Trypanosoma cruzi [26]): 1.01%; Activity (Trypanosoma cruzi [27]): 0.06%; Activity (Trypanosoma cruzi [28]): 5.71%; Activity (Trypanosoma cruzi [29]): 93.22%
H-FWGTLARWALKAIPA-OH,–,–,55 µM,10.8,–,5.1 µM,–
H-FWGTLAKWARKAIPA-OH,–,–,25.1 µM,7.5,–,3.31 µM,–
H-FWGTLAKWALKAIPA-OH,–,–,> 50 µM,< 50,–,> 50 µM,–
H-FWGRLAKWALKAIPA-OH,–,–,9.6 µM,8.8,–,1.09 µM,–
H-FWGKLAKWALKAIPA-OH,–,–,60 µM,58.2,–,1.03 µM,–
H-GTLAKWALKAIPA-OH,–,–,189 µM,21.6,–,8.76 µM,–
